Reference: PMC11558128 (Advanced Science, 2024)
Positions of bridges follow the written chain, without caps; N, C: chain ends. Residues, ends and D or L forms follow the SMILES beside them.

Assays:
rKv4.2 D281A = biological target: T1, rKv4.2 D281A (Rattus norvegicus, UniProt Q63881, D281A); test: Patch clamp of rKv4.2 mutant D281A; format: cell-based; conditions: mean ± SEM
T1 construct: expressed in transfected cells; host or cells: HEK293T

rKv4.2 E283A = biological target: T2, rKv4.2 E283A (Rattus norvegicus, UniProt Q63881, E283A); test: Patch clamp of rKv4.2 mutant E283A; format: cell-based; conditions: mean ± SEM
T2 construct: expressed in transfected cells; host or cells: HEK293T
T2 sequence (Q63881 whole entry E283A): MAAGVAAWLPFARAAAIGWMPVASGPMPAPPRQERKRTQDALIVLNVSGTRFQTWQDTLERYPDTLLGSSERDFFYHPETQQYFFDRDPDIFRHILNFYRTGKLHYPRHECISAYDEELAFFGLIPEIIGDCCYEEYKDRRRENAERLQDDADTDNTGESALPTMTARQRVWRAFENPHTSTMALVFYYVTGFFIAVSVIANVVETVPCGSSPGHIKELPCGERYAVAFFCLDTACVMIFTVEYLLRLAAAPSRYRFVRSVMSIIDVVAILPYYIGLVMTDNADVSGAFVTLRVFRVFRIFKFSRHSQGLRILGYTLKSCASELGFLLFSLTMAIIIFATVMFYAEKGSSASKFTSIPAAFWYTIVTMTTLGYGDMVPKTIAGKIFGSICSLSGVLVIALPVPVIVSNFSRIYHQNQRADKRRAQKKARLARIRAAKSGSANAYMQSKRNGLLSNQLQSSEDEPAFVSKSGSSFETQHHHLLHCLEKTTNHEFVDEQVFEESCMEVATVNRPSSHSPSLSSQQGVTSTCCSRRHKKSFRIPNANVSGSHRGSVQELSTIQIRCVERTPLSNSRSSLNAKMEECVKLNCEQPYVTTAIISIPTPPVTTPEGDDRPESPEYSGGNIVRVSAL

rKv4.2 D284A = biological target: T3, rKv4.2 D284A (Rattus norvegicus, UniProt Q63881, D284A); test: Patch clamp of rKv4.2 mutant D284A; format: cell-based; conditions: mean ± SEM
T3 construct: expressed in transfected cells; host or cells: HEK293T
T3 sequence (Q63881 whole entry D284A): as the sequence (Q63881 whole entry E283A) above, with A283E, D284A counted along it

rKv4.2 D284K = biological target: T4, rKv4.2 D284K (Rattus norvegicus, UniProt Q63881, D284K); test: cell-based; conditions: mean ± SEM
T4 construct: expressed in transfected cells; host or cells: HEK293T
T4 sequence (Q63881 1-630 D284K): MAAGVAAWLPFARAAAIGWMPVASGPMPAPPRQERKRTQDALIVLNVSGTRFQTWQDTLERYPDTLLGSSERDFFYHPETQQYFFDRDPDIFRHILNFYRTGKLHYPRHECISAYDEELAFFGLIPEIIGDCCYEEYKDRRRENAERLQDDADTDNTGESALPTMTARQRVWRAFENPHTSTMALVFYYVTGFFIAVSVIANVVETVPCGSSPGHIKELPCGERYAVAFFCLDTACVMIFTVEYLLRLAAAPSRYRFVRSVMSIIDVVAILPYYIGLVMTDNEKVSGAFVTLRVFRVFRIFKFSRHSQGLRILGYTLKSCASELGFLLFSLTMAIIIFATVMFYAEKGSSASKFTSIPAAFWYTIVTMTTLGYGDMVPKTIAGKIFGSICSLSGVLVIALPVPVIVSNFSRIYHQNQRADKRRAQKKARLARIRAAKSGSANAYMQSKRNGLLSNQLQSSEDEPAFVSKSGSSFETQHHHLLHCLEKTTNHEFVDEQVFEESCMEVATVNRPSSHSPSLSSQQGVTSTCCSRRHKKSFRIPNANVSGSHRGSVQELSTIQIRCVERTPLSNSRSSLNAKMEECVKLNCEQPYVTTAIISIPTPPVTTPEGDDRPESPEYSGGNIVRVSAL

mKv4.1 = biological target: T5, mKv4.1 (Mus musculus, UniProt Q03719); test: Whole-cell patch clamp of mKv4.1 currents; format: cell-based; conditions: mean ± S.E.M., n = 5, SEM
T5 construct: expressed in transfected cells; host or cells: HEK293T
T5 sequence (Q03719 whole entry): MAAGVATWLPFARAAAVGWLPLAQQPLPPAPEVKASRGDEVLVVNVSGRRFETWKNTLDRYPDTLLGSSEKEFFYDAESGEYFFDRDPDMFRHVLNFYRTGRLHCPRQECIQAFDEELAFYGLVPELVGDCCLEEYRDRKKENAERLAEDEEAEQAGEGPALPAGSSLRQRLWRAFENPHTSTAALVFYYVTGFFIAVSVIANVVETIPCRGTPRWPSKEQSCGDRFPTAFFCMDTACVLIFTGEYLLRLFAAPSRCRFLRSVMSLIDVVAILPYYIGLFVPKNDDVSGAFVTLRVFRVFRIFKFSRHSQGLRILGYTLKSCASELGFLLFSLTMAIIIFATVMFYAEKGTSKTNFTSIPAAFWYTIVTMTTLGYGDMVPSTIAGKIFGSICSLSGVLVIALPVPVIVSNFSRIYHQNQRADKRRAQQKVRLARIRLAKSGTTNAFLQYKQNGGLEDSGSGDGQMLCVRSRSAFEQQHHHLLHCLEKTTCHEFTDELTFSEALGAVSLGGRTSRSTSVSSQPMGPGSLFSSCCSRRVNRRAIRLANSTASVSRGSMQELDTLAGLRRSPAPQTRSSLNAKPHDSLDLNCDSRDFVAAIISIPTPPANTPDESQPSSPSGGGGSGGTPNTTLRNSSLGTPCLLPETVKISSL

rKv2.1 = biological target: T6, rKv2.1 (Rattus norvegicus, UniProt P15387); test: Whole-cell patch clamp of rKv2.1 currents; format: cell-based; conditions: mean ± S.E.M., n = 6, SEM
T6 construct: expressed in transfected cells; host or cells: HEK293T
T6 sequence (P15387 whole entry): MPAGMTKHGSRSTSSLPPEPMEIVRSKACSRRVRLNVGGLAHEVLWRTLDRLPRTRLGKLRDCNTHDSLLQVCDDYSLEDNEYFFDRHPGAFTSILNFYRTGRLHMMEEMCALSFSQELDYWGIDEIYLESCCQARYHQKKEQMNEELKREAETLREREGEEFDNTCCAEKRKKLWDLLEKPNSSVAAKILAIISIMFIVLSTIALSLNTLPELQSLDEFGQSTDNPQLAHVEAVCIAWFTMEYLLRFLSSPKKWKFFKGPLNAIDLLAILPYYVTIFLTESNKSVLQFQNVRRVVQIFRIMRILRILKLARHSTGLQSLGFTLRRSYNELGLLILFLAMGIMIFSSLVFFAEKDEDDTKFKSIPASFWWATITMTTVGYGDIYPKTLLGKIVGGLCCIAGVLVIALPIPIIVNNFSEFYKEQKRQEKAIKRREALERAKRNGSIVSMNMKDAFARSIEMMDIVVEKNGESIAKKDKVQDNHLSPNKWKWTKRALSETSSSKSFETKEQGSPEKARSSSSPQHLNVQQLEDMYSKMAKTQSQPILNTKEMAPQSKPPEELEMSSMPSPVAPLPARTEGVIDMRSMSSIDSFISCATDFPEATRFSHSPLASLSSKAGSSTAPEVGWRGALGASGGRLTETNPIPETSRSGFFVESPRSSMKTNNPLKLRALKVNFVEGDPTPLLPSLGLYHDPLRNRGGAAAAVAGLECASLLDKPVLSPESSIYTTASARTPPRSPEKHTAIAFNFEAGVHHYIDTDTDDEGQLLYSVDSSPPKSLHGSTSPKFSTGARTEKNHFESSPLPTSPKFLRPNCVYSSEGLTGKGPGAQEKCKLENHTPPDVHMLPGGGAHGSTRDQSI

hERG = hERG (Homo sapiens, UniProt Q12809); test: in vitro; conditions: pH 7.4, SEM
Chain of hERG (Q12809 whole entry): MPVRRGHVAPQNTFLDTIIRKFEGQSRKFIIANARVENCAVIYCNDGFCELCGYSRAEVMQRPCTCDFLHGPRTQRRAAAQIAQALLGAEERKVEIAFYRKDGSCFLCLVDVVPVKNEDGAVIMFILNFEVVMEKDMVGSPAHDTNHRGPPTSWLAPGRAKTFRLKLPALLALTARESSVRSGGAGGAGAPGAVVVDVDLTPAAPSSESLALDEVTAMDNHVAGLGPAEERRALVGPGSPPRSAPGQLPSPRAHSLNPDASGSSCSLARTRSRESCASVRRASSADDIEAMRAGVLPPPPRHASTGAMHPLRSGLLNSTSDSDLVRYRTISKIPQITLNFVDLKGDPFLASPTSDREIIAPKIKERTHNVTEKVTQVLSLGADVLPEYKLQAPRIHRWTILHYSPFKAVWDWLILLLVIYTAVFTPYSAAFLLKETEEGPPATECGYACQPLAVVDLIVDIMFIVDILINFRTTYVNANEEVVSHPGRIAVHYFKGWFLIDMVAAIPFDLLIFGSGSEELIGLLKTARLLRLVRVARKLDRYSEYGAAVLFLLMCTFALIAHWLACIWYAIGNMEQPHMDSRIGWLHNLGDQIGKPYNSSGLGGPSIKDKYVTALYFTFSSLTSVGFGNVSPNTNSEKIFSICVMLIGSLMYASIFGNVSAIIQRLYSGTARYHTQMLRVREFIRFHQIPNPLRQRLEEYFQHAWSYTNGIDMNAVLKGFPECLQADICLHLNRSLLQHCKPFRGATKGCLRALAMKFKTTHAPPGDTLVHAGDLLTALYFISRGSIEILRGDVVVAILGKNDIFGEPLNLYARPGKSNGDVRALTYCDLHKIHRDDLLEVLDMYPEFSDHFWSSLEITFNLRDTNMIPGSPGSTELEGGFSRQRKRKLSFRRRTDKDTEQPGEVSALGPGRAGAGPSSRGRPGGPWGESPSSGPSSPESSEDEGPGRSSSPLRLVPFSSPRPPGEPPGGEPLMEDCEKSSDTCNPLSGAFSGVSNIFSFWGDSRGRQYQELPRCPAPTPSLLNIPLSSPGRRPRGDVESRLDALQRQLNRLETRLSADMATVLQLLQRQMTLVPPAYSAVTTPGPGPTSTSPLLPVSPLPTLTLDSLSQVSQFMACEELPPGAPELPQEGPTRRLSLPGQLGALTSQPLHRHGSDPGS

ICR mice [1] = test: Surface electrocardiogram (ECG) recording in ICR mice; format: in vivo, mouse
Protocol: Surface Electrocardiographic (ECG) Recording: ICR mice (weight 18–20 g, 6–8 weeks, both sex) were lightly anesthetized with 3% halothane for Surface electrocardiograms (ECG), which were recorded by placing dry electrodes carefully wrapped around each of the mouse's four limbs. The data of physiological effects of intravenous administration of 0.3 mg kg^−1 mGpTx1 (4 males and 4 females) or 2 mg kg^−1 mGpTx1‐SA (3 males and 2 females) for 5 min were collected by PowerLab 2/28 and LabChart 8 (AD Instruments, Bella Vista, Australia) and analyzed standard ECG parameters by along with its accompanying ECG analysis plug‐in. For each mouse, the data of 8 cardiac cycles before and after administration were averaged for analysis.

ICR mice [2] = test: Rotarod test; format: in vivo, mouse; conditions: 2 mg kg-1 i.p.; vs saline; n = 5-6, p > 0.9999
Protocol: In Vivo Safety Evaluation: Rotarod Test: ICR mice (weight 18–20 g, 6–8 weeks, both sex) were trained on a rotarod at a constant speed of 20 rpm for 8 min per day. […] On the 5th day, the remaining mice were randomly divided into two groups: Saline (3 males and 2 females) and 2 mg kg^−1 mGpTx1‐SA (3 males and 3 females). All groups were administered intraperitoneally and allowed 20 minutes for the drug to take effect before behavioral tests were conducted. The total motor time of the animals during 300 s was recorded for analysis.

ICR mice [3] = test: Forced swimming test; format: in vivo, mouse; conditions: 2 mg kg-1 i.p.; vs saline; n = 5, p = 0.8413
Protocol: Forced Swimming Test: ICR mice (weight 18–20 g, 6–8 weeks, both sex) were subjected to forced swimming training for 8 min per day over a span of 4 days. […] On the 5th day, the remaining mice were randomly assigned to one of two groups: Saline (3 males and 2 females) and the 2 mg kg^−1 mGpTx1‐SA (3 males and 2 females). All groups received intraperitoneal administration and were allowed 20 min for the drug to take effect before behavioral tests commenced. Swimming time was recorded for a duration of 4 min within a 6‐minute timeframe following drug administration.

ICR mice [4] = test: Small intestinal propulsion test; format: in vivo, mouse; conditions: 2 mg kg-1 i.p.; vs saline; n = 4, p = 0.3429
Protocol: Small Intestinal Propulsion Test: ICR mice (weight 18–20 g, 6–8 weeks, both sex) were subjected to a 24‐hour fasting period to ensure gastrointestinal emptying. Subsequently, the mice were randomly assigned to one of two groups: Saline (2 males and 2 females) and 2 mg kg^−1 mGpTx1‐SA (2 males and 2 females). All groups received intraperitoneal administration of their respective substances and were allowed 20 minutes for the drugs to take effect. Following drug administration, each mouse received a pre‐prepared nutritive semi‐solid paste (10 g of sodium carboxymethylcellulose, 16 g of milk powder, 8 g of sucrose, 8 g of starch, and 5 g of activated charcoal, stirred well in 250 mL of ddH2O) via gavage (0.5 mL per 20 g). After 20 min, the mice were euthanized, and their small intestines were carefully removed. The distance from the pylorus to the ileum was measured along the full length of the small intestine. Additionally, the distance from the pylorus to the front of the black semi‐solid paste was measured. Small intestinal propulsion rate (%) = length of carbon paste propulsion (cm) × 100% / total length of small intestine (cm).

[5] = test system: acutely isolated rat cardiomyocytes; conditions: 5 µM; for effect on action potential duration (APD): n = 5-6
[6] = test system: native Kv channels of rat primary cardiomyocytes; conditions: 5 µM; n = 5
[7] = test system: native Nav channels of rat primary cardiomyocytes; conditions: 5 µM; n = 5

T1 sequence (Q63881 whole entry D281A): as the sequence (Q63881 whole entry E283A) above, with D281A, A283E counted along it

For `CC(C)C[C@H](NC(=O)[C@H](Cc1ccc(O)cc1)NC(=O)[C@@H](NC(=O)[C@H](CCCCN)NC(=O)[C@@H]1CSSC[C@@H]2NC(=O)[C@H](CCC(=O)O)NC(=O)[C@H](CC(N)=O)NC(=O)[C@H](CCCCN)NC(=O)CNC(=O)[C@@H]3CCCN3C(=O)[C@H]([C@@H](C)O)NC(=O)[C@@H]3CSSC[C@H](NC(=O)[C@H](C)NC(=O)[C@H](Cc4ccc(O)cc4)NC(=O)[C@H](CC(N)=O)NC(=O)[C@@H]4CCCN4C(=O)[C@H](CSSC[C@H](NC(=O)CN)C(=O)N[C@@H](CCCCN)C(=O)NCC(=O)N[C@@H](Cc4ccccc4)C(=O)NCC(=O)N[C@@H](CC(=O)O)C(=O)N[C@@H](CO)C(=O)N3)NC2=O)C(=O)N[C@@H](CO)C(=O)N[C@@H](CO)C(=O)N[C@@H](CCCCN)C(=O)N[C@@H](Cc2c[nH]cn2)C(=O)N[C@@H](CCCCN)C(=O)N[C@@H](Cc2c[nH]c3ccccc23)C(=O)N1)C(C)C)C(N)=O` [HNTX-III] (H-GCKGFGDSCTPGKNECCPNYACSSKHKWCKVYL-NH2; disulfide 2-17, 9-22, 16-29), the IC50 (rKv4.2 D281A) was 214 ± 76 nM, the IC50 (rKv4.2 E283A) was 987 ± 303 nM and the IC50 (rKv4.2 D284A) was 491 ± 72 nM. The IC50 (rKv4.2 D284K) was > 20000 nM.
With `CSCC[C@@H]1NC(=O)CNC(=O)[C@H](CCC(=O)O)NC(=O)[C@@H]2CSSC[C@H](NC(=O)[C@@H](N)Cc3ccc(O)cc3)C(=O)N[C@@H](CCC(N)=O)C(=O)N[C@@H](CCCCN)C(=O)N[C@@H](Cc3c[nH]c4ccccc34)C(=O)N[C@@H](CCSC)C(=O)N[C@@H](Cc3c[nH]c4ccccc34)C(=O)N[C@@H]([C@@H](C)O)C(=O)N[C@H]3CSSC[C@H](NC(=O)[C@H](C(C)C)NC1=O)C(=O)N[C@@H](CCCNC(=N)N)C(=O)N[C@@H](CC(C)C)C(=O)N[C@@H](Cc1c[nH]c4ccccc14)C(=O)N[C@H](C(=O)N[C@@H](CCCCN)C(=O)N[C@@H](CCCCN)C(=O)N[C@@H](CCCCN)C(=O)N[C@@H](CC(C)C)C(=O)N[C@@H](Cc1c[nH]c4ccccc14)C(=O)O)CSSC[C@H](NC(=O)[C@H](CCCCN)NC(=O)[C@H](CCCNC(=N)N)NC(=O)[C@H](CCC(=O)O)NC(=O)[C@H](CO)NC(=O)[C@H](CC(=O)O)NC3=O)C(=O)N2` [ProTx-II] the IC50 (mKv4.1) was 38.1 ± 5.3 nM, the IC50 (rKv2.1) was 78.7 ± 9 nM and the IC50 (rKv4.2 D284K; SEM) was 20 ± 2 nM. The IC50 (hERG) was 29.7 ± 2.8 nM.
In the case of `CC[C@H](C)[C@@H]1NC(=O)[C@@H]2CSSC[C@@H]3NC(=O)[C@H](C(C)C)NC(=O)[C@H](CC(C)C)NC(=O)[C@H](CC(N)=O)NC(=O)[C@@H]4CCCN4C(=O)[C@H](CCCNC(=N)N)NC(=O)[C@H](CSSC[C@H](NC(=O)[C@@H](N)CC(=O)O)C(=O)N[C@@H](CC(C)C)C(=O)NCC(=O)N[C@@H](C)C(=O)N[C@@H](Cc4ccccc4)C(=O)N[C@@H](CCCNC(=N)N)C(=O)N[C@@H](CCCCN)C(=O)N2)NC(=O)[C@H](CSSC[C@@H](C(=O)N[C@@H](CCCCN)C(=O)N[C@@H](Cc2ccc(O)cc2)C(=O)N[C@H](C(=O)N[C@@H](Cc2ccccc2)C(N)=O)C(C)C)NC(=O)[C@H](Cc2c[nH]c4ccccc24)NC(=O)[C@H](CCCNC(=N)N)NC(=O)[C@H](Cc2c[nH]cn2)NC(=O)[C@H](C)NC(=O)[C@H](CO)NC(=O)[C@H](CO)NC3=O)NC(=O)[C@H](CCCCN)NC(=O)[C@H](CC(=O)O)NC(=O)[C@H](CC(N)=O)NC(=O)[C@H](CC(=O)O)NC(=O)[C@@H]2CCCN2C1=O` [mGpTx1-SA] (H-DCLGAFRKCIPDNDKCCRPNLVCSSAHRWCKYVF-NH2; disulfide 2-17, 9-23, 16-30), the RR interval (ICR mice [1]; 2 mg kg-1, tail vein, control 0.13 ± 0.01 s, n = 5, p = 0.3229) is reported as 0.13 ± 0.01 s, the heart rate (ICR mice [1]; 2 mg kg-1, tail vein, control 478.2 ± 24.3, n = 5, p = 0.8856) is reported as 475.3 ± 24.7 and the “effect on the ECGs” value (ICR mice [1]; 2 mg kg-1, tail vein, n = 5) is reported as “no effect”. The “balance time of mice on the rotarod test” value (ICR mice [2]) was “did not affect”, the “time spent on swimming” value (ICR mice [3]) was “did not affect” and the small intestinal propulsion (ICR mice [4]) was “no effect”. For the same compound, the “effect on AP amplitude” value [5] was “no significant changes”, the “effect on resting membrane potential (RMP)” value [5] was “no significant changes” and the “effect on action potential duration (APD)” value [5] was “no effect”. The “inhibition of Kv currents in the primary cardiomyocytes” value [6] was “did not inhibit” and the “inhibition of Nav currents in the primary cardiomyocytes” value [7] was “did not inhibit”.
Compound `CC[C@H](C)[C@@H]1NC(=O)[C@@H]2CSSC[C@@H]3NC(=O)[C@H](C(C)C)NC(=O)[C@H](CC(C)C)NC(=O)[C@H](CC(N)=O)NC(=O)[C@@H]4CCCN4C(=O)[C@H](CCCNC(=N)N)NC(=O)[C@H](CSSC[C@H](NC(=O)[C@@H](N)CC(=O)O)C(=O)N[C@@H](CC(C)C)C(=O)NCC(=O)N[C@@H](C)C(=O)N[C@@H](Cc4ccccc4)C(=O)N[C@@H](CCCNC(=N)N)C(=O)N[C@@H](CCCCN)C(=O)N2)NC(=O)[C@H](CSSC[C@@H](C(=O)N[C@@H](CCCCN)C(=O)N[C@@H](Cc2ccc(O)cc2)C(=O)N[C@H](C(=O)N[C@@H](Cc2ccccc2)C(N)=O)C(C)C)NC(=O)[C@H](Cc2c[nH]c4ccccc24)NC(=O)[C@H](CCCNC(=N)N)NC(=O)[C@H](Cc2cnc[nH]2)NC(=O)[C@H](CC(C)C)NC(=O)[C@H](CCCNC(=N)N)NC(=O)[C@H](CO)NC3=O)NC(=O)[C@H](CCCCN)NC(=O)[C@H](CC(=O)O)NC(=O)[C@H](CC(N)=O)NC(=O)[C@H](CC(=O)O)NC(=O)[C@@H]2CCCN2C1=O` [mGpTx1] (H-DCLGAFRKCIPDNDKCCRPNLVCSRLHRWCKYVF-NH2; disulfide 2-17, 9-23, 16-30) has an IC50 (rKv4.2 D284K; SEM) of 663 ± 179 nM, a QTc interval (ICR mice [1]; 0.3 mg kg-1, tail vein, control 0.07 ± 0.01 s, n = 8, p < 0.001) of 0.12 ± 0.01 s and an RR interval (ICR mice [1]; 0.3 mg kg-1, tail vein, control 0.12 ± 0.01 s, n = 8, p = 0.0088) of 0.14 ± 0.01 s. The T-wave amplitude (ICR mice [1]; 0.3 mg kg-1, tail vein, control 0.20 ± 0.03 mV, n = 8, p = 0.0138) was 0.09 ± 0.02 mV, the heart rate (ICR mice [1]; 0.3 mg kg-1, tail vein, control 508.4 ± 24.5, n = 8, p = 0.0045) was 451.6 ± 27.1 and the “effect on the ECGs” value (ICR mice [1]; 0.3 mg kg-1, tail vein, n = 8) was “notably altered the shape of the ECGs”. The “effect on AP amplitude” value [5] was “no significant changes”, the “effect on resting membrane potential (RMP)” value [5] was “no significant changes” and the “APD at 90% repolarization (APD 90)” value ([5]; before treatment 51.7 ± 14.6 ms, n = 5, p = 0.0289) was 137.1 ± 36.3 ms. For the same compound, the “effect on action potential duration (APD)” value [5] was “significantly prolonged”.
